The source of these data is the NIST ThermoML archive (doi:10.1021/je034066w).

Numbers after ± are expanded uncertainties.

The conditions of the data set: Liquid.

Regarding `CC(C)O` [propan-2-ol], the Critical pressure (Direct measurement) amounted to 4755 ± 48 kPa. Further, the Critical temperature (Visual observation in a stirred cell) was determined as 508.15 ± 0.12 K.
